Test results reported in US6737383B1, “Herbicidal oxadiazolidines” (priority 1999, dated 2004).

Experiments:
[1] = system: purple nutsedge; assay: Test B pre/postemergence purple nutsedge; assay type: in vivo, Cyperus rotundus
How it was run: (§1)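 Test chemicals in a non-phytotoxic solvent mixture with surfactant were sprayed preemergence onto planted seeds and postemergence onto plants 2 to 18 cm tall (1- to 4-leaf stage). After twelve to sixteen days in a greenhouse, injury was visually rated against untreated controls from 0 (no effect) to 10 (complete control).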

[2] = system: Italian ryegrass; assay: Test E Italian ryegrass; assay type: in vivo, Lolium multiflorum; details: Preemergence
[3] = system: duck salad; assay: Test B flood test duck salad; assay type: in vivo, Heteranthera limosa
How it was run: (§2)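 Each value is a visual injury score relative to controls, with 10 meaning complete control and 0 no effect. Evaluation took place twelve to sixteen days after the 2-leaf-stage plants were treated and kept in the greenhouse.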

[4] = system: dallisgrass; assay: Test D dallisgrass; assay type: in vivo, Paspalum dilatatum; details: Preemergence, 0 to 100 scale
How it was run: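 Weed seeds planted in sandy loam; species kept apart in individual pots or compartments. Preemergence tests: treatment to soil surface within one day. Greenhouse growth, then visual injury scoring at 14–21 days (0–100).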

[5] = system: crabgrass; assay: Test B pre/postemergence crabgrass; assay type: in vivo, Digitaria sanguinalis
How it was run: as §1

[6] = system: bamyardgrass; assay: Test B flood test barnyardgrass; assay type: in vivo, Echinochloa crus-galli
How it was run: as §2

[7] = system: green foxtail; assay: Test E green foxtail; assay type: in vivo, Setaria viridis; details: Preemergence
[8] = system: winter barley; assay: Test E winter barley; assay type: in vivo, Hordeum vulgare; details: Preemergence
[9] = system: winter wheat; assay: Test E winter wheat; assay type: in vivo, Triticum aestivum; details: Preemergence
[10] = system: winter wheat; assay: Test E winter wheat; assay type: in vivo, Triticum aestivum; details: Postemergence
How it was run: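 For postemergence, plants at the 1- to 4-leaf stage, in a 60:40 mix of sandy loam and potting mix, treated with compound formulated in a surfactant-containing non-phytotoxic solvent. Visual assessment versus untreated controls followed roughly 21–28 days in the greenhouse.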

[11] = system: blackgrass; assay: Test E blackgrass; assay type: in vivo, Alopecurus myosuroides; details: Preemergence
[12] = system: itchgrass; assay: Test D itchgrass; assay type: in vivo, Rottboellia exaltata; details: Preemergence, 0 to 100 scale
Text: Seeds, tubers, or plant parts of Alexandergrass (Brachiaria plantaginea), bermuda-grass (Cynodon dactylon), common pursiane (Portulaca oleracea), common ragweed (Ambrosia elatior), common groundsel (Senecio vulgaris), dallisgrass (Paspalum dilatatum), goosegrass (Eleusine indica), guineagrass (Panicum maximum), itchgrass (Rottboellia exaltata), Johnson grass (Sorghum halepense), large crabgrass (Digitaria sanguinalis), pitted morningglory (Ipomoea lacunosa), purple nutsedge (Cyperus rotundus), sandbur (Cenchrus echinatus), sourgrass (Trichachne insularis), Spanishneedles (Bidens bipinnata), surinam grass (Brachiaria decumbens) and tall mallow (Malva sylvestris) were planted into greenhouse pots of flats containing greenhouse planting medium. Plant species were grown in separate pots or individual compartments. Preemergence applications were made within one day of planting the seed or plant part.
Test chemicals were formulated in a non-phytotoxic solvent mixture which included a surfactant and applied preemergence to the surface of the pot containing seeds in a sandy loam soil. Untreated control pots and treated pots were placed in the greenhouse for growth and visually evaluated for injury 14 to 21 days after herbicide application. Plant response ratings, summarized in Table C, are based on a 0 to 100 scale where 0 is no injury and 100 is complete control. A dash (−) response means no test result.

[13] = system: wild oat; assay: Test E wild oat; assay type: in vivo, Avena fatua; details: Preemergence
[14] = Postemergence, Rate 62 g/ha, scale 0 to 10, 0 is no effect, 10 is complete control
[15] = Postemergence, Rate 250 g/ha, scale 0 to 10, 0 no effect, 10 complete control
[16] = Postemergence, Rate 1000 g/ha, scale 0 to 10 (0 no effect, 10 complete control)
[17] = Preemergence, Rate 31 g/ha, visual rating, scale 0 to 10 (0 no effect, 10 complete control)
[18] = Preemergence, Rate 62 g/ha, scale 0 to 10, 0 is no effect, 10 is complete control
[19] = Preemergence, Rate 125 g/ha, scale 0 to 10 (0 no effect, 10 complete control)
[20] = Preemergence, Rate 250 g/ha, scale of 0 to 10 where 0 is no effect and 10 is complete control
[21] = Preemergence, Rate 500 g/ha, scale 0 (no effect) to 10 (complete control)
[22] = Rate 31 g/ha, Postemergence, scale 0 to 10
[23] = Rate 125 g/ha, Postemergence, scale 0 to 10, 0 no effect, 10 complete control
[24] = Rate 500 g/ha, Postemergence, 0 to 10 scale (0 no effect, 10 complete control)
[25] = Rate 1000 g/ha, Preemergence, scale 0 to 10 (0 no effect, 10 complete control)
[26] = Rate 125 g/ha, 0 to 100 scale (0 no effect, 100 complete control)
[27] = Rate 500 g/ha, 0 to 100 scale where 0 is no effect and 100 is complete control
[28] = Rate 1000 g/ha, 0 to 100 scale where 0 is no effect and 100 is complete control
[29] = Rate 31 g/ha, Postemergence section (flood test species), scale 0 to 10
[30] = Rate 125 g/ha, Postemergence section (flood test species), scale 0 to 10, 0 no effect, 10 complete control
[31] = Rate 500 g/ha, Postemergence section of Table B, 0 to 10 scale (0 no effect, 10 complete control)
[32] = flood test, listed under Postemergence, Rate 250 g/ha, scale 0 to 10, 0 no effect, 10 complete control
[33] = Rate 16 g/ha, 0 no injury, 100 complete control
[34] = Rate 32 g/ha, 0 no injury, 100 complete control
[35] = Rate 64 g/ha, 0 no injury, 100 complete control
[36] = Rate 125 g/ha, 0 no injury, 100 complete control

## Cc1ccccc1-n1c(=O)on(C(=O)N(c2ccc(F)cc2)C(C)C)c1=O [Compound 4]
[1]; [14]
  Nutsedge plant response rating: 0
[1]; [15]
  Nutsedge plant response rating: 0
[1]; [16]
  Nutsedge plant response rating: 0
[1]; [17]
  Nutsedge plant response rating: 0
[1]; [18]
  Plant response rating, Nutsedge: 0
[1]; [19]
  Plant response rating, Nutsedge: 0
[1]; [20]
  Plant response rating, Nutsedge: 0
[1]; [21]
  Nutsedge plant response rating: 0
[1]; [22]
  Nutsedge plant response rating: 0
[1]; [23]
  Nutsedge plant response rating: 0
[1]; [24]
  Nutsedge plant response rating: 0
[1]; [25]
  Plant response rating, Nutsedge: 0
[2]; [26]
  Plant response rating, I. Ryegrass: 20
[2]; Rate 250 g/ha, 0 to 100 scale
  Plant response rating, I. Ryegrass: 20
[2]; [27]
  Plant response rating, I. Ryegrass: 50
[2]; [28]
  Plant response rating, I. Ryegrass: 85
[3]; [14]
  Ducksalad plant response rating: 0
[3]; [16]
  Ducksalad plant response rating: 3
[3]; [29]
  Ducksalad plant response rating: 0
[3]; [30]
  Ducksalad plant response rating: 0
[3]; [31]
  Ducksalad plant response rating: 2
[3]; [32]
  Ducksalad plant response rating: 2
[4]; [33]
  Plant response rating, Dallisgrass: 75
[4]; [34]
  Plant response rating, Dallisgrass: 85
[4]; [35]
  Plant response rating, Dallisgrass: 90
[4]; [36]
  Plant response rating, Dallisgrass: 98
[4]; Rate 250 g/ha
  Plant response rating, Dallisgrass: 98
[4]; Rate 500 g/ha
  Plant response rating, Dallisgrass: 98
[5]; [14]
  Crabgrass plant response rating: 0
[5]; [15]
  Crabgrass plant response rating: 8
[5]; [16]
  Crabgrass plant response rating: 8
[5]; [17]
  Crabgrass plant response rating: 3
[5]; [18]
  Plant response rating, Crabgrass: 3
[5]; [19]
  Plant response rating, Crabgrass: 10
[5]; [20]
  Plant response rating, Crabgrass: 10
[5]; [21]
  Crabgrass plant response rating: 10
[5]; [22]
  Crabgrass plant response rating: 0
[5]; [23]
  Crabgrass plant response rating: 5
[5]; [24]
  Crabgrass plant response rating: 8
[5]; [25]
  Plant response rating, Crabgrass: 10
[6]; [14]
  Barnyardgrass plant response rating: 0
[6]; [16]
  Barnyardgrass plant response rating: 4
[6]; [29]
  Barnyardgrass plant response rating: 0
[6]; [30]
  Barnyardgrass plant response rating: 0
[6]; [31]
  Barnyardgrass plant response rating: 4
[6]; [32]
  Barnyardgrass plant response rating: 3
[7]; [26]
  Plant response rating, Green foxtail: 50
[7]; Rate 250 g/ha, 0 to 100 scale
  Plant response rating, Green foxtail: 55
[7]; [27]
  Plant response rating, Green foxtail: 100
[7]; [28]
  Plant response rating, Green foxtail: 100
[8]; [26]
  Plant response rating, Barley (winter): 10
[8]; Rate 250 g/ha, 0 to 100 scale
  Plant response rating, Barley (winter): 10
[8]; [27]
  Plant response rating, Barley (winter): 10
[8]; [28]
  Plant response rating, Barley (winter): 10
[9]; [26]
  Plant response rating, Wheat (winter): 0
[9]; Rate 250 g/ha, 0 to 100 scale
  Plant response rating, Wheat (winter): 0
[9]; [27]
  Plant response rating, Wheat (winter): 0
[9]; [28]
  Plant response rating, Wheat (winter): 0
[10]; Rate 125 g/ha, 0 to 100 scale
  Plant response rating, Wheat (winter): 0
[10]; Rate 250 g/ha, 0 to 100 scale (0 no effect, 100 complete control)
  Plant response rating, Wheat (winter): 0
[10]; Rate 1000 g/ha, 0 to 100 scale, 0 is no effect and 100 is complete control
  Plant response rating, Wheat (winter): 0
[10]; Rate 500 g/ha, 0 to 100 scale, 0 no effect, 100 complete control
  Plant response rating, Wheat (winter): 0
[11]; [26]
  Plant response rating, Blackgrass: 30
[11]; Rate 250 g/ha, 0 to 100 scale
  Plant response rating, Blackgrass: 50
[11]; [27]
  Plant response rating, Blackgrass: 90
[11]; [28]
  Plant response rating, Blackgrass: 100
[12]; [33]
  Plant response rating, Itchgrass: 0
[12]; [34]
  Plant response rating, Itchgrass: 0
[12]; [35]
  Plant response rating, Itchgrass: 75
[12]; [36]
  Plant response rating, Itchgrass: 0
[12]; Rate 250 g/ha
  Plant response rating, Itchgrass: 80
[12]; Rate 500 g/ha
  Plant response rating, Itchgrass: 80
[13]; [26]
  Plant response rating, Wild oat: 10
[13]; [27]
  Plant response rating, Wild oat: 25
[13]; [28]
  Plant response rating, Wild oat: 50
